Molecules are shown by their SMILES.

The test system of assay [1] is stomach (necrosis and inflammation caused by ethanol). In words: oral cytoprotection against absolute-ethanol-induced stomach necrosis and inflammation (similar to Robert, U.S. Pat. No. 4,097,603). The assay is classed as in vivo, rat (fasted, male). The note with it: for cytoprotective potency relative to racemic form: optical isomer versus racemic form, Table 1 data; for Percent Protection, 2 mg/kg 1 hr: 2 mg/kg oral, 1 hour interval between administration of compound and subsequent administration of ethanol. On the procedure: The data of Table 1 are from tests similar to one described by Robert [U.S. Pat. No. 4,097,603 (1978)] in which fasted, male rats were treated with 8-azaprostanoids orally. Then, at various times later they were treated orally with 1.0 ml of absolute ethanol. The rats were sacrificed after ethanol administration and the stomachs were removed, inspected, and rated. The ED50 values of Table 1 represent the doses of 8-azaprostanoids that gave 50% protection from the necrosis and inflammation of the stomach caused by ethanol. For comparison, values are given for the natural prostaglandin, PGE1, and for racemic 7-[2-oxo-5(4,4-difluoro-3-hydroxy-1n-dec-1(E)-enyl)-1-pyrrolidinyl]heptanoic acid, which is identified in Table 1 as compound 8. The corresponding racemic tert-butyl ester is identified as 7. The structures of 7 and 8, each of which is a mixture of 4 optical isomers, are as follows: [drawing 18]
*"1 hr" refers to the 1 hour interval between administration of compound
and subsequent administration of ethanol.
**"Peak Time" refers to the interval between administration of compound
and administration of ethanol at which greatest protection is observed.

Another assay relates to PGE1; rat stomach strips. The experiment in a line: antagonism of PGE1 in in vitro tests on rat stomach strips. The note with it: relative to racemic form 7. An excerpt: Some differences in biological activities of the racemic forms and different optical isomers of these 8-azaprostanoids can be seen in the data presented in Table 1.

As to `CCCCCCC(F)(F)[C@H](O)/C=C/[C@H]1CCC(=O)N1CCCCCCC(=O)O` (single isomer, unassigned) [8l(15R), 7-[2-oxo-5(R or S)-5-(4,4-difluoro-3(R or S)-3-hydroxy-ln-dec-1(E)enyl)-1-pyrrolidinyl]heptanoic acid], in assay [1], the “cytoprotective potency relative to racemic form” value is “more potent as a cytoprotective agent than its racemic form 8”.

As for `CCCCCCC(F)(F)[C@@H](O)/C=C/[C@H]1CCC(=O)N1CCCCCCC(=O)O` (single isomer, unassigned) [8l(15S), 7-[2-oxo-5(R or S)-5-(4,4-difluoro-3(R or S)-3-hydroxy-ln-dec-1(E)enyl)-1-pyrrolidinyl]heptanoic acid], in assay [1] (interval between administration of compound and of ethanol at which greatest protection is observed), the “Peak Time” value turned out to be 15 min.

As for `CCCCCCC(F)(F)C(O)/C=C/C1CCC(=O)N1CCCCCCC(=O)OC(C)(C)C` (single isomer, unassigned) [7d(15R,S), tert-butyl 7-[2-oxo-5-(S or R)-5-(4,4-difluoro-3(R,S)hydroxy-ln-dec-1(E)-enyl)-1-pyrrolidinyl]heptanoate], the “potency as an antagonist of PGE1” value in the assay on PGE1; rat stomach strips is reported as “more potent than 7 as an antagonist of PGE1”. Also, in assay [1], the “Percent Protection, 2 mg/kg 1 hr” value is recorded as -5% and the “cytoprotective potency relative to racemic form” value is given as “less potent than its racemic form 7”.

As for `CCCCCCC(F)(F)C(O)/C=C/C1CCC(=O)N1CCCCCCC(=O)OC(C)(C)C` (single isomer, unassigned) [7l(15R,S), tert-butyl 7-[2-oxo-5(R or S)-5-(4,4-difluoro-3(R,S)hydroxy-ln-dec-1(E)-enyl)-1-pyrrolidinyl]heptanoate], the “Percent Protection, 2 mg/kg 1 hr” value in assay [1] came to 59%.
